Measurements taken from ChEMBL document CHEMBL5512688 (J Med Chem, 2024).
pIC50: −log10 of the molar value.

System: not listed separately
Assay: Volume of distribution in ICR mouse at 1 mg/kg, iv measured upto 24 hrs by LC-MS/MS analysis
Type: ADME, organism-based
Conditions: in vivo

| SMILES | Vd |
| --- | --- |
| C=CCn1c(=O)c2cnc(Nc3ccc(C4CCN(C)CC4)cc3)nc2n1-c1cccc(-c2ncccn2)n1 | 9.03 L/kg |
| C=CCn1c(=O)c2cnc(Nc3ccc(N4CCN(C)CC4)cc3)nc2n1-c1cccc(-c2ncccn2)n1 | 4.24 L/kg |
| C=CCn1c(=O)c2cnc(Nc3ccc(N4C[C@@H](C)N[C@@H](C)C4)cc3)nc2n1-c1cccc(-c2ncccn2)n1 | 60.5 L/kg |
| C=CCn1c(=O)c2cnc(Nc3ccc(N4CCNCC4)cc3)nc2n1-c1cccc(-c2ncccn2)n1 | 5.66 L/kg |
| C=CCn1c(=O)c2cnc(Nc3ccc(N4CCN(CCO)CC4)cc3)nc2n1-c1cccc(-c2cnccn2)n1 | 17 L/kg |

Target: T1, Wee1-like protein kinase (Homo sapiens, UniProt P30291)
Assay: Inhibition of Wee1 in human U2OS cells assessed as reduction in CDK1 phosphorylation measured for 1 hr by Western blot analysis
Type: cell-based
Conditions: not given

T1 sequence (P30291 whole entry): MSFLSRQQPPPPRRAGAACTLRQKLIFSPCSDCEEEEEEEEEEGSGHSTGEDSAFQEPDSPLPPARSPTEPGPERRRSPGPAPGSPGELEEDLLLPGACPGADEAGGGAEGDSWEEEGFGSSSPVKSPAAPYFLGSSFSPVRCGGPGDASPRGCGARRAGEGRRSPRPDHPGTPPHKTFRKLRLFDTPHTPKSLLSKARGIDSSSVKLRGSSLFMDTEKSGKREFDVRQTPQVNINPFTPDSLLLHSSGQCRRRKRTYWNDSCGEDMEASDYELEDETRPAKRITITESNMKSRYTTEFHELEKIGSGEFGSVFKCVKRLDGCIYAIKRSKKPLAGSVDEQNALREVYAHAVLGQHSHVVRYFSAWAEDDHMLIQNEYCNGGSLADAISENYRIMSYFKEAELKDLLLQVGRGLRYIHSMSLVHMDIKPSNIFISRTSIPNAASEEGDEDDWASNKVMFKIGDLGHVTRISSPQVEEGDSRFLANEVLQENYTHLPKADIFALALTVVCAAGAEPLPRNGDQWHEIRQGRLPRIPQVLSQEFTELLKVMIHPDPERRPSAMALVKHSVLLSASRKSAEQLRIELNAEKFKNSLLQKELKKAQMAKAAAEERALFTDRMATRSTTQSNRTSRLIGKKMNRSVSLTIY

| SMILES | pIC50 |
| --- | --- |
| C=CCn1c(=O)c2cnc(Nc3ccc(N4CCN(C)CC4)cc3)nc2n1-c1cccc(-c2ncccn2)n1 | 6.33 |

System: not listed separately
Assay: Metabolic stability in mouse liver microsome assessed as parent compound remaining measured at 60 mins by LCMS/MS analysis
Type: ADME
Conditions: liver microsomes, read-out: Stability

| SMILES | remaining at 1 h |
| --- | --- |
| C=CCn1c(=O)c2cnc(Nc3ccc(C4CCN(C)CC4)cc3)nc2n1-c1cccc(-c2ncccn2)n1 | 79.4% |
| C=CCn1c(=O)c2cnc(Nc3ccc(N4CCN(C)CC4)cc3)nc2n1-c1cccc(-c2ncccn2)n1 | 63.9% |
| C=CCn1c(=O)c2cnc(Nc3ccc(N4C[C@@H](C)N[C@@H](C)C4)cc3)nc2n1-c1cccc(-c2ncccn2)n1 | 83.9% |
| C=CCn1c(=O)c2cnc(Nc3ccc(N4CCNCC4)cc3)nc2n1-c1cccc(-c2ncccn2)n1 | 99.1% |
| C=CCn1c(=O)c2cnc(Nc3ccc(N4CCN(CCO)CC4)cc3)nc2n1-c1cccc(-c2cnccn2)n1 | 56% |

System: not listed separately
Assay: Bioavailability in ICR mouse at 60 mg/kg, IG measured upto 24 hrs by LC-MS/MS analysis
Type: ADME, organism-based
Conditions: in vivo, po

| SMILES | bioavailability |
| --- | --- |
| C=CCn1c(=O)c2cnc(Nc3ccc(C4CCN(C)CC4)cc3)nc2n1-c1cccc(-c2ncccn2)n1 | 30.3% |
| C=CCn1c(=O)c2cnc(Nc3ccc(N4CCN(C)CC4)cc3)nc2n1-c1cccc(-c2ncccn2)n1 | 61.1% |
| C=CCn1c(=O)c2cnc(Nc3ccc(N4C[C@@H](C)N[C@@H](C)C4)cc3)nc2n1-c1cccc(-c2ncccn2)n1 | 87.1% |
| C=CCn1c(=O)c2cnc(Nc3ccc(N4CCNCC4)cc3)nc2n1-c1cccc(-c2ncccn2)n1 | 1.96% |
| C=CCn1c(=O)c2cnc(Nc3ccc(N4CCN(CCO)CC4)cc3)nc2n1-c1cccc(-c2cnccn2)n1 | 54.9% |

System: A-427
Assay: Antiproliferative activity against human A-427 cells assessed as inhibition of cell growth incubated for 72 hrs by CCK-8 assay
Type: functional, cell-based
Conditions: A-427, 72 h

| SMILES | pIC50 |
| --- | --- |
| C=CCn1c(=O)c2cnc(Nc3ccc(C4CCN(C)CC4)cc3)nc2n1-c1cccc(-c2ncccn2)n1 | 6.48 |
| C=CCn1c(=O)c2cnc(Nc3ccc(N4CCN(C)CC4)cc3)nc2n1-c1cccc(-c2ncccn2)n1 | 6.40 |
| C=CCn1c(=O)c2cnc(Nc3ccc(N4C[C@@H](C)N[C@@H](C)C4)cc3)nc2n1-c1cccc(-c2ncccn2)n1 | 6.47 |
| C=CCn1c(=O)c2cnc(Nc3ccc(N4CCNCC4)cc3)nc2n1-c1cccc(-c2ncccn2)n1 | 6.49 |
| C=CCn1c(=O)c2cnc(Nc3ccc(N4CCN(CCO)CC4)cc3)nc2n1-c1cccc(-c2cnccn2)n1 | 6.98 |

System: LoVo
Assay: Antiproliferative activity against human LoVo cells assessed as inhibition of cell growth incubated for 72 hrs by CCK-8 method
Type: functional, cell-based
Conditions: not given

| SMILES | pIC50 |
| --- | --- |
| C=CCn1c(=O)c2cnc(Nc3ccc(N4CCN(C)CC4)cc3)nc2n1-c1cccc(-c2ncccn2)n1 | 6.25 |

System: not listed separately
Assay: Half life in ICR mouse at 1 mg/kg, iv measured upto 24 hrs by LC-MS/MS analysis
Type: ADME, organism-based
Conditions: in vivo

| SMILES | half-life |
| --- | --- |
| C=CCn1c(=O)c2cnc(Nc3ccc(C4CCN(C)CC4)cc3)nc2n1-c1cccc(-c2ncccn2)n1 | 1.51 h |
| C=CCn1c(=O)c2cnc(Nc3ccc(N4CCN(C)CC4)cc3)nc2n1-c1cccc(-c2ncccn2)n1 | 1.19 h |
| C=CCn1c(=O)c2cnc(Nc3ccc(N4C[C@@H](C)N[C@@H](C)C4)cc3)nc2n1-c1cccc(-c2ncccn2)n1 | 1.72 h |
| C=CCn1c(=O)c2cnc(Nc3ccc(N4CCNCC4)cc3)nc2n1-c1cccc(-c2ncccn2)n1 | 1.24 h |
| C=CCn1c(=O)c2cnc(Nc3ccc(N4CCN(CCO)CC4)cc3)nc2n1-c1cccc(-c2cnccn2)n1 | 1.3 h |

Target: T1, Wee1-like protein kinase
Assay: Inhibition of human Wee1 (215 to 647 residues) using polyornithine/tyrosine (4:1) as substrate incubated for 5 mins in presence of ATP by micro beta plate reader analysis
Conditions: not given

| SMILES | pIC50 |
| --- | --- |
| C=CCn1c(=O)c2cnc(Nc3ccc(C4CCN(C)CC4)cc3)nc2n1-c1cccc(-c2ncccn2)n1 | 8.68 |
| C=CCn1c(=O)c2cnc(Nc3ccc(N4CCN(C)CC4)cc3)nc2n1-c1cccc(-c2ncccn2)n1 | 8.66 |
| C=CCn1c(=O)c2cnc(Nc3ccc(N4C[C@@H](C)N[C@@H](C)C4)cc3)nc2n1-c1cccc(-c2ncccn2)n1 | 8.62 |
| C=CCn1c(=O)c2cnc(Nc3ccc(N4CCNCC4)cc3)nc2n1-c1cccc(-c2ncccn2)n1 | 9.05 |
| C=CCn1c(=O)c2cnc(Nc3ccc(N4CCN(CCO)CC4)cc3)nc2n1-c1cccc(-c2cnccn2)n1 | 8.54 |

System: not listed separately
Assay: Half life in ICR mouse at 60 mg/kg, IG measured upto 24 hrs by LC-MS/MS analysis
Type: ADME, organism-based
Conditions: in vivo, po

| SMILES | half-life |
| --- | --- |
| C=CCn1c(=O)c2cnc(Nc3ccc(C4CCN(C)CC4)cc3)nc2n1-c1cccc(-c2ncccn2)n1 | 3.55 h |
| C=CCn1c(=O)c2cnc(Nc3ccc(N4CCN(C)CC4)cc3)nc2n1-c1cccc(-c2ncccn2)n1 | 1.74 h |
| C=CCn1c(=O)c2cnc(Nc3ccc(N4C[C@@H](C)N[C@@H](C)C4)cc3)nc2n1-c1cccc(-c2ncccn2)n1 | 5.42 h |
| C=CCn1c(=O)c2cnc(Nc3ccc(N4CCN(CCO)CC4)cc3)nc2n1-c1cccc(-c2cnccn2)n1 | 4.68 h |

System: not listed separately
Assay: AUC (0 to 24 hrs) in ICR mouse at 1 mg/kg, iv measured upto 24 hrs by LC-MS/MS analysis
Type: ADME, organism-based
Conditions: in vivo

| SMILES | AUC(0-t) at 24 h |
| --- | --- |
| C=CCn1c(=O)c2cnc(Nc3ccc(C4CCN(C)CC4)cc3)nc2n1-c1cccc(-c2ncccn2)n1 | 236 ng·h/mL |
| C=CCn1c(=O)c2cnc(Nc3ccc(N4CCN(C)CC4)cc3)nc2n1-c1cccc(-c2ncccn2)n1 | 403 ng·h/mL |
| C=CCn1c(=O)c2cnc(Nc3ccc(N4C[C@@H](C)N[C@@H](C)C4)cc3)nc2n1-c1cccc(-c2ncccn2)n1 | 35.5 ng·h/mL |
| C=CCn1c(=O)c2cnc(Nc3ccc(N4CCNCC4)cc3)nc2n1-c1cccc(-c2ncccn2)n1 | 199 ng·h/mL |
| C=CCn1c(=O)c2cnc(Nc3ccc(N4CCN(CCO)CC4)cc3)nc2n1-c1cccc(-c2cnccn2)n1 | 74.3 ng·h/mL |

System: not listed separately
Assay: AUC (0 to 24 hrs) in ICR mouse at 60 mg/kg, IG measured upto 24 hrs by LC-MS/MS analysis
Type: ADME, organism-based
Conditions: in vivo, po

| SMILES | AUC(0-t) at 24 h |
| --- | --- |
| C=CCn1c(=O)c2cnc(Nc3ccc(C4CCN(C)CC4)cc3)nc2n1-c1cccc(-c2ncccn2)n1 | 4280 ng·h/mL |
| C=CCn1c(=O)c2cnc(Nc3ccc(N4CCN(C)CC4)cc3)nc2n1-c1cccc(-c2ncccn2)n1 | 14800 ng·h/mL |
| C=CCn1c(=O)c2cnc(Nc3ccc(N4C[C@@H](C)N[C@@H](C)C4)cc3)nc2n1-c1cccc(-c2ncccn2)n1 | 1850 ng·h/mL |
| C=CCn1c(=O)c2cnc(Nc3ccc(N4CCNCC4)cc3)nc2n1-c1cccc(-c2ncccn2)n1 | 235 ng·h/mL |
| C=CCn1c(=O)c2cnc(Nc3ccc(N4CCN(CCO)CC4)cc3)nc2n1-c1cccc(-c2cnccn2)n1 | 2440 ng·h/mL |

System: not listed separately
Assay: Clearance in ICR mouse at 1 mg/kg, iv measured upto 24 hrs by LC-MS/MS analysis
Type: ADME, organism-based
Conditions: in vivo

| SMILES | clearance |
| --- | --- |
| C=CCn1c(=O)c2cnc(Nc3ccc(C4CCN(C)CC4)cc3)nc2n1-c1cccc(-c2ncccn2)n1 | 69.5 mL/min/kg |
| C=CCn1c(=O)c2cnc(Nc3ccc(N4CCN(C)CC4)cc3)nc2n1-c1cccc(-c2ncccn2)n1 | 41.2 mL/min/kg |
| C=CCn1c(=O)c2cnc(Nc3ccc(N4C[C@@H](C)N[C@@H](C)C4)cc3)nc2n1-c1cccc(-c2ncccn2)n1 | 427 mL/min/kg |
| C=CCn1c(=O)c2cnc(Nc3ccc(N4CCNCC4)cc3)nc2n1-c1cccc(-c2ncccn2)n1 | 82 mL/min/kg |
| C=CCn1c(=O)c2cnc(Nc3ccc(N4CCN(CCO)CC4)cc3)nc2n1-c1cccc(-c2cnccn2)n1 | 218 mL/min/kg |

System: not listed separately
Assay: Metabolic stability in human liver microsome assessed as parent compound remaining measured at 60 mins by LCMS/MS analysis
Type: ADME
Conditions: liver microsomes, read-out: Stability

| SMILES | remaining at 1 h |
| --- | --- |
| C=CCn1c(=O)c2cnc(Nc3ccc(C4CCN(C)CC4)cc3)nc2n1-c1cccc(-c2ncccn2)n1 | 67.3% |
| C=CCn1c(=O)c2cnc(Nc3ccc(N4CCN(C)CC4)cc3)nc2n1-c1cccc(-c2ncccn2)n1 | 79.8% |
| C=CCn1c(=O)c2cnc(Nc3ccc(N4C[C@@H](C)N[C@@H](C)C4)cc3)nc2n1-c1cccc(-c2ncccn2)n1 | 51.3% |
| C=CCn1c(=O)c2cnc(Nc3ccc(N4CCNCC4)cc3)nc2n1-c1cccc(-c2ncccn2)n1 | 90.9% |
| C=CCn1c(=O)c2cnc(Nc3ccc(N4CCN(CCO)CC4)cc3)nc2n1-c1cccc(-c2cnccn2)n1 | 71.2% |
